Measured values taken from patent US20030104974A1, “Dual inhibitorsof PDE 7 and PDE 4” (priority 2001, published 2003).
Where two headings read alike, the source gives them in different places.

Columns and labels:
PDE4 = assay: SPA assay, PDE4 (rat kidney); assay type: biochemical
Protocol: (§1) Inhibition of PDE activity in Hut78 cell lysate was determined using an SPA specific for cAMP (Amersham Pharmacia Biotech, Buckinghamshire, UK) according to the manufacturers instructions with minor modifications. Enzyme assays were performed at room temperature in the presence of 50 mM Tris HCl, pH7.5, containing 8.3 mM MgCl2, 1.7 mM EGTA and 0.5 mg/mL BSA. Each assay was performed in a 100 μL reaction volume in 96 well microtitre plates containing the above buffer, 0.3 ul of Hut78 cell lysate treated with 2 uM Zardaverine to inhibit PDE3 and PDE4, 0.05 uCi of [5′,8-3H] Adenosine 3′,5′-cyclic phosphate as an ammonium salt for 20 min. The reaction was terminated by the addition of 50 μl PDE SPA beads (1 mg) water with 10 mM cold cAMP (Sigma, St. Louis Mo.). The reaction mix was allowed to settle for 20 minutes before counting in a Top Count-NXT scintillation counter (Packard BioScience, Meriden, Conn.). […] The following PDEs/activators and enzyme sources were used: PDE1, bovine (Sigma St Louis), calmodulin; PDE2, rat kidney, cGMP; PDE3, human platelet; PDE4, rat kidney; PDE5, human platelet, and PDE6, bovine retina.
(§2) The LPS human PBMC TNF production assay was performed as described above.

PDE5 = target: T1, PDE5 (Homo sapiens, UniProt O76074); assay: SPA assay, PDE5 (human platelet, 3H-cyclic GMP substrate); assay type: biochemical
T1 construct: PDE5, human platelet; from tissue; host or cells: human platelet
Protocol: as §1, §2

[1] = Pharmacokinetic data in mice for Example F1 and rolipram; assay type: in vivo; conditions: for Cmax: mouse, plasma
PDE6 = target: T2, PDE6 (Bos taurus, UniProt P11541+P23439); assay: SPA assay, PDE6 (bovine retina, 3H-cyclic GMP substrate); assay type: biochemical
T2 construct: PDE6, bovine retina; from tissue; host or cells: bovine retina
T2 sequence (P11541 2-856 limits assumed): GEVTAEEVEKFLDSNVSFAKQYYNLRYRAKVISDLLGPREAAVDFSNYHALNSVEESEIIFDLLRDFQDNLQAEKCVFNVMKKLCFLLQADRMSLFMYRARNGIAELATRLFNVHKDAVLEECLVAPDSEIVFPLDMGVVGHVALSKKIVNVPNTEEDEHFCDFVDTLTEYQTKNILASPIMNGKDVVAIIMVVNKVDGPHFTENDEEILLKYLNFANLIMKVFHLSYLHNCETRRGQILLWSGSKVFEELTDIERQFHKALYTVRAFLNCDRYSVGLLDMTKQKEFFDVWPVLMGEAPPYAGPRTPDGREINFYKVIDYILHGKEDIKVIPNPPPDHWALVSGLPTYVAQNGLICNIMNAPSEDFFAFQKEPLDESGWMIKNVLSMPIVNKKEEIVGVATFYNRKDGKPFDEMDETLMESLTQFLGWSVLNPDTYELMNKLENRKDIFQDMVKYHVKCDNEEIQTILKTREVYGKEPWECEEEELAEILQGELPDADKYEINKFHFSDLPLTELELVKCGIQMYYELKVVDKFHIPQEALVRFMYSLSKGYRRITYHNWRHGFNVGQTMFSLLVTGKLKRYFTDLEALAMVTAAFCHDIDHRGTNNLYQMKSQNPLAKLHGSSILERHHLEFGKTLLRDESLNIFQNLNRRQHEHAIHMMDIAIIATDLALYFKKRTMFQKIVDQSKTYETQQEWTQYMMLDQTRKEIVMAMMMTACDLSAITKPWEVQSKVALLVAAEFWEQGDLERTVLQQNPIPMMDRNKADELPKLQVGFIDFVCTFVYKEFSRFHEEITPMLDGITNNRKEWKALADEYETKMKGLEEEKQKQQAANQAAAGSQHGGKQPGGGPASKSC
T2 sequence (P23439 2-850 limits assumed): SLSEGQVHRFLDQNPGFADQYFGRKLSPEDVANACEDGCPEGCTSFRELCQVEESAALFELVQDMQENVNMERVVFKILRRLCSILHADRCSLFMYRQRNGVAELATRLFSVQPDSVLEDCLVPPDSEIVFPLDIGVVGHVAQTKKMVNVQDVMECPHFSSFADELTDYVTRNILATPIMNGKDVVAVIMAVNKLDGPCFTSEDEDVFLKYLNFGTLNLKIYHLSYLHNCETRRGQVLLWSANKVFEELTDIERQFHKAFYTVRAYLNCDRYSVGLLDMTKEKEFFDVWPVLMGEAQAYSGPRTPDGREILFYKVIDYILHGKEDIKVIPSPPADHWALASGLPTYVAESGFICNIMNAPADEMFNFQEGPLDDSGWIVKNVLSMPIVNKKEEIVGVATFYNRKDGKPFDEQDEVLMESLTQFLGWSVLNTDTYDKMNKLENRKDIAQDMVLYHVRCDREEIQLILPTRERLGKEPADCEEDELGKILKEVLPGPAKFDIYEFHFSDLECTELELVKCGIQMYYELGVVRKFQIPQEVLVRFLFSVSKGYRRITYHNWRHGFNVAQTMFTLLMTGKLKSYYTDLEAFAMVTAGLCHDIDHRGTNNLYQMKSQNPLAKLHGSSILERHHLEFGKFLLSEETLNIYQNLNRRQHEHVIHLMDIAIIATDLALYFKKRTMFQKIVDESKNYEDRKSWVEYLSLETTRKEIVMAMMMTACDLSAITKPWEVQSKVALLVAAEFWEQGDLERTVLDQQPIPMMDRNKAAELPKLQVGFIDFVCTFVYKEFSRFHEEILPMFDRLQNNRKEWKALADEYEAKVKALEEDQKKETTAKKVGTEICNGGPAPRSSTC
Protocol: as §1, §2

[2] = tested on: Lipopolysaccharide (LPS) induced tumor necrosis factor (TNF) production; assay: LPS induced TNF production in mice (Examples I-1, I-2); assay type: in vivo; conditions: for reduction in serum TNF: Example I-1; for inhibited TNF production: Example I-2
Protocol: Mice were exposed to lipopolysaccharide to induce production of tumor necrosis factor as described by Cornwell, et. al. (Lipopolysaccharide, but not lethal infection, releases tumor necrosis factor in mice. Cornwell, R. D.; Golenbock, D. T.; Proctor, R. A. Adv.; Exp. Med. Biol. (1990), 256(Endotoxin), 585-8.). The mice were divided in to groups of eight animals each. All animals received an intraperitoneal (IP) injection of 50 μg/kg of LPS. The vehicle control group of animals received 0.2 mL of a vehicle of tween80 (5%), 95% ethanol (5%) and water 90%, sixty minutes prior to administration of LPS, and an IP injection of 0.2 mL of water fifteen minutes prior to administration of LPS. […] A group of mice (F1 group) were administered 0.2 mL of a vehicle of tween80 (5%), 95% ethanol (5%) and water 90%, sixty minutes prior to administration of LPS, and Example F1, at a dose of 7.5 mg/kg, IP in water, fifteen minutes prior to administration of LPS. […] A group of mice (dexamethasone group) were administered a 5 mg/kg dose of dexamethasone in a vehicle of tween80 (5%), 95% ethanol (5%) and water 90%, sixty minutes prior to administration of LPS, and 0.2 mL of water IP, fifteen minutes prior to administration of LPS.
Cilomilast inhibited TNF production by 56% (p<0.05). […] Finally the dexamethasone control inhibited TNF production 94%.

PDE7 = target: T3, PDE7 (Homo sapiens, UniProt Q13946); assay: SPA assay for cAMP, PDE7 in Hut78 cell lysate treated with Zardaverine; assay type: biochemical; conditions: for IC50: Hut78 cell lysate, SPA
T3 construct: endogenous in cells; host or cells: Hut78 cells (crude lysate)
T3 sequence (Q13946 whole entry): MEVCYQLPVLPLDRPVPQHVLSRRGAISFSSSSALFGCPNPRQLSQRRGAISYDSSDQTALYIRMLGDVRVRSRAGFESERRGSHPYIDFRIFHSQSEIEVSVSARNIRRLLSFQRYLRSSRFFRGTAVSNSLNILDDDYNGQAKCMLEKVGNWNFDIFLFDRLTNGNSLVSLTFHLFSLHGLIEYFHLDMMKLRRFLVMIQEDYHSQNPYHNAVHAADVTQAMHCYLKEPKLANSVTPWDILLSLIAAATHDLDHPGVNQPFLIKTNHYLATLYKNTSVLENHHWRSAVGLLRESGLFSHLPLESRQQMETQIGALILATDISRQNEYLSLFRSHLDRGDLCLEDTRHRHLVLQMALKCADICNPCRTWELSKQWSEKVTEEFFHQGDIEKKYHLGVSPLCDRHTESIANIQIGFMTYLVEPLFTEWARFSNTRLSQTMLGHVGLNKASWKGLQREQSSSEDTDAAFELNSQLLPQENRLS
Protocol: Hut78 cells were grown in 10% FCS in Iscoves Modified Dulbecco's Medium (Gibco BRL-Life Technologies, Grand Island, N.Y.) with antibiotics. Cells were centrifuged and resuspended in four volumes of [40 mM Tris (pH 7.5)/50 μM EDTA/200 μM PMSF with a cocktail of Protease inhibitors (Boehringher Mannheim, Indianapolis, Ind.)] at 4 C. Cells were homogenized using a Virtis homogenizer, and the lysate was centrifuged twice for 15 min at 15,000×g. Glycerol was added to a final volume of 50% for storage at −20C.
as §1, §2

PDE1 = assay: SPA assay, PDE1 (3H-cyclic GMP substrate, calmodulin); assay type: biochemical; conditions: bovine PDE1, calmodulin
Protocol: as §1, §2

PDE3 = target: T4, PDE3 (Homo sapiens, UniProt Q14432); assay: SPA assay, PDE3 (human platelet); assay type: biochemical
T4 construct: PDE3, human platelet; from tissue; host or cells: human platelet
T4 sequence (Q14432 whole entry): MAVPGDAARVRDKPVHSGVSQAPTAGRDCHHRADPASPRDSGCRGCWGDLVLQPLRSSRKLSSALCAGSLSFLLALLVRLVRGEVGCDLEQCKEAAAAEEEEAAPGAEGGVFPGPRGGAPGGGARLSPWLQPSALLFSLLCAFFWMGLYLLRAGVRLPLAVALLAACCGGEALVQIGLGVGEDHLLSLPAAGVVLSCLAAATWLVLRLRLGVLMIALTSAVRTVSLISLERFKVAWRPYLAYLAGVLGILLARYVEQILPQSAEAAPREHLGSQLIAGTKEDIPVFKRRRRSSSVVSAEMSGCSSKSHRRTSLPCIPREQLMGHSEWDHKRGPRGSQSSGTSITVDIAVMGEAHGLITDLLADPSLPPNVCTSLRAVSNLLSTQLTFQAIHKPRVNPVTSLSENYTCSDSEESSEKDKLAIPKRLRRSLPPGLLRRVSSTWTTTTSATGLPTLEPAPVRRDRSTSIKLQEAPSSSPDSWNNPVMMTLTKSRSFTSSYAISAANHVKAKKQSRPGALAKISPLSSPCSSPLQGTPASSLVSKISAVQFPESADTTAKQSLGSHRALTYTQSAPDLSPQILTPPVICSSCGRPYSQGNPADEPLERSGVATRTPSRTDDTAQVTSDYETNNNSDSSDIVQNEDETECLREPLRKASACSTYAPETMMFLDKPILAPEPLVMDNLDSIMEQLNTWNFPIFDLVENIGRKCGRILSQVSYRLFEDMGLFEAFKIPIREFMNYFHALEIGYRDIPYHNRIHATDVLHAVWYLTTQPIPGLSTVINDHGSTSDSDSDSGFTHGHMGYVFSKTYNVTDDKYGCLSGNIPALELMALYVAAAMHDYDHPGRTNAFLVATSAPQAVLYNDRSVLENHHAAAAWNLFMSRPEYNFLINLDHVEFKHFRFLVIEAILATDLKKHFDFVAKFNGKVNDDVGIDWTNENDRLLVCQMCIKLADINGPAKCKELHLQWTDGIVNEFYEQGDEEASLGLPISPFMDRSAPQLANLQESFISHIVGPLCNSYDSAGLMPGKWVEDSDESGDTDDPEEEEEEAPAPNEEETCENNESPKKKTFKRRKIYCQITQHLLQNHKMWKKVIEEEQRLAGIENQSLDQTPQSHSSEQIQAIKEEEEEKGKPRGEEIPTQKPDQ
Protocol: as §1, §2

[3] = tested on: LPS human PBMC TNF production; assay: LPS human PBMC TNF production assay; assay type: cell-based; conditions: LPS 6.25 ng/ml, 4 h
Protocol: Peripheral blood mononuclear cells (PBMC) were isolated from whole blood by density gradient centrifugation over Lymphoprep, 1.077. Cells were plated into 96 well U-bottom plates at 2.5×10^5 cells/well in 10% FBS RPMI 1640 (Life Technologies/Gibco-BRL) containing 10 ug/ml anti-CD3 (G19-4, Bristol-Myers Squibb P.R.I., Princeton, N.J.) and lug/ml anti-CD28 (9.3, Bristol-Myers Squibb P.R.I.) in the presence and absence of inhibitors. DMSO (used as a solvent for inhibitors) was added to the medium at 0.1% final concentration. The total volume per well was 200 μL. Cells were incubated at 37 C. 5% CO2 for 3 days, at which time 0.5 μCi of ^3H-thymidine was added to each well. Six hours following the addition of ^3H-thmidine, the plates were harvested onto filter plates, 30 ul EcoLite scintillant (ICN, Costa Mesa, Calif.) was added per well, and plates read on a Top Count-NXT scintillation counter.
The ability of compounds to inhibit the production and secretion of TNFα from leukocytes was performed using either PBMC (obtained as described above) or the THP-1 cell line as a source of monocytes. Compounds were diluted in RPMI 1640 supplemented with 10% FBS and DMSO at a final concentration of 0.2%. […] Soluble TNFα was detected by ELISA developed by R&D Systems (Minneapolis, Minn.) according to the manufacturers instructions. […]

[4] = mice, F1 30 mg/kg IP, rolipram 10 mg orally

Structure (SMILES) | IC50 (PDE4) | IC50 (PDE5) | IC50 (PDE6) | IC50 (PDE7) | IC50 (PDE1) | IC50 (PDE3) | IC50 [3] | also measured
CCOC(=O)c1sc(Nc2nc(NCc3cc(OC)c(OC)c(OC)c3)cc(N3CCC(N(C)C)CC3)n2)nc1C [Example F1, 2-[[4-[4-(Dimethylamino)-1-piperidinyl]-6-[[(3,4,5-trimethoxphenyl)methyl]amino]-2-pyrimidinyl]amino]-4-methyl-5-thiazolecarboxylic Acid, Ethyl Ester] | 3 µM | 2.8 µM | 7.5 µM | 0.03 µM | 4.3 µM | 32 µM | – | plasma concentration of F1 compared with its PDE4 IC50 ([1]; mice, F1 30 mg/kg): does not reach the PDE4 IC50; change of Cmax of F1 by co-administration of rolipram [1, 4]: essentially unchanged; Cmax ([1]; mice, F1 30 mg/kg IP alone, read-out: Cmax, F1): 2200 nM; reduction in serum TNF ([2]; F1 7.5 mg/kg IP 15 min prior to LPS 50 μg/kg IP, vs vehicle): 52%; selective for PDE7 over PDE4 (PDE7; ratio of PDE4 and PDE7 IC50): 100 fold
CCOC(=O)c1sc(Nc2nc(N3CCC(O)CC3)cc(N3CCC(O)CC3)n2)nc1C [Example F2, 2-[4,6-Bis-(4-hydroxy-piperidin-1-yl)-pyrimidin-2-ylamino]-4-methyl-thiazole-5-carboxylic Acid Ethyl Ester] | 3.2 µM | 0.72 µM | 0.73 µM | 0.06 µM | 4.8 µM | 20 µM | > 25 µM | inhibited TNF production ([2]; F2 30 mg/kg, not statistically significant): 33.7%
COc1ccc([C@]2(C#N)CC[C@@H](C(=O)O)CC2)cc1OC1CCCC1 [cilomilast, reference compound] | 0.03 µM | > 10 µM | – | > 50 µM | 3.4 µM | > 10 µM | 0.43 µM | inhibited TNF production ([2]; cilomilast 1 mg/kg): 56%
C[C@@H]1C[C@H]2[C@@H]3CCC4=CC(=O)C=C[C@]4(C)[C@@]3(F)[C@@H](O)C[C@]2(C)[C@@]1(O)C(=O)CO [dexamethasone] | – | – | – | – | – | – | – | reduction in serum TNF ([2]; dexamethasone 5 mg/kg 60 min prior to LPS): 93%; inhibited TNF production ([2]; dexamethasone control): 94%
COc1ccc(C2CNC(=O)C2)cc1OC1CCCC1 (centres unmarked) [rolipram, reference compound] | – | – | – | > 10 µM | – | – | – | Cmax of Rolipram reduced by a factor by co-administration with F1 [1, 4]: 3 factor; Cmax ([1]; po, 10 mg): 290 nM; reduction in serum TNF ([2]; rolipram 5 mg/kg oral 60 min prior to LPS 50 μg/kg IP, vs vehicle): 54%
